Laboratory results as given in patent US20240251788A1, “HERBICIDE/SAFENER COMBINATION BASED ON SAFENERS FROM THE CLASS OF SUBSTITUTED [(1,5-DIPHENYL-1H-1,2,4-TRIAZOL-3-YL)OXY]ACETIC ACIDS AND THEIR SALTS” (Bayer Aktiengesellschaft, priority 2021, published 2024).

What was measured:
[1] = test system: summer barley crop plant (HORVS: cv. Quench); test: Reduction in herbicide damage to summer barley by safener, greenhouse post-emergence application, visual scoring; format: in vivo; design: key to Reduction in the damage by safener (difference): difference in % visual damage, 0-100% scale vs untreated plants; conditions: summer barley (HORVS)
Procedure: (§1) The seeds of the crop plants to be treated are laid out in soil in woodfiber pots (diameter ˜ 7 cm), covered with soil and grown in a greenhouse under good conditions for germination and growth. The trial plants were treated at the early leaf stage (BBCH10-BBCH12).
The herbicides used (component B) were used in the following formulations: • B2.81: WP • B2.85: WP • B2.92: WP • Clomazone: WP • Ethofumesate: WP • Flufenacet: SC • Fluroxypyr: EC • Saflufenacil: WP • Thiencarbazone-methyl: WP • Iodosulfuron-methyl-sodium: WP • Bifenox: WP • Glyphosate potassium salt: SL • Topramezone: WP
(§2) The dose of the respective herbicides was chosen here such that it causes an average degree of visually apparent damage (min. 20%, max. 75%) compared to untreated crop plants at the evaluation time on a control group of crop plants without safener treatment that were included in the same trial.
(§3) In the respective herbicide/safener combinations, the safeners (component A) in the form of wettable powders (WP) were added in the dose specified; in these cases, herbicide and safener are thus applied as a mixture.
(§4) Application was effected in each case on to the above-ground parts of the plant, at a water application rate corresponding to 300 l/ha and with addition of wetting agent (Mero, 1.5 l/h a).
In the applications that contained pinoxaden or topramezone, the herbicidal effect was enhanced by additionally adding ammonium sulfate (2 kg/ha).
(§5) After application, the plants were cultivated under good growth conditions in a greenhouse. On account of the different mechanisms of action of the herbicides used, the damaging effect of the herbicides was fully manifested at different times depending on the herbicide, and this in turn forms the basis for assessment of the safener action in the mixtures. Therefore, the damage was scored visually, depending on the herbicide/mixture, between 11 and 21 days after application.
(§6) The damage effect was assessed visually on a scale of 0-100% by comparison with untreated control plants, and averaged over 2 repeats per treatment.

[2] = test system: summer wheat crop plant (TRZAS; cv. Triso); test: Reduction in herbicide damage to summer wheat by safener, greenhouse post-emergence application, visual scoring; format: in vivo; design: key to Reduction in the damage by safener (difference): difference in % visual damage (0-100% scale vs untreated) due to safener; conditions: summer wheat (TRZAS)
Procedure: as §1
The herbicides used (component B) were used in the following formulations: • B2.81: WP • B2.85: WP • B2.92: WP • Cinmethylin: EC • Clomazone: WP • Ethofumesate: WP • Flufenacet: SC • Pinoxaden: WP • Saflufenacil: WP • Bicyclopyrone: WP • Picloram: WP • Metazachlor: SC • Flumioxazin: WP • Glyphosate potassium salt: SL • Topramezone: WP
as §2, §3, §4
In the applications that contained pinoxaden, bicyclopyrone or topramezone, the herbicidal effect was enhanced by additionally adding ammonium sulfate (2 kg/ha).
as §5, §6

[3] = herbicide B2.28 (flufenacet) 2000 g a.i./ha + safener 100 g a.i./ha
[4] = herbicide B2.28 (flufenacet) 4000 g a.i./ha + safener 100 g a.i./ha
[5] = herbicide B2.34 (iodosulfuron) 10 g a.i./ha + safener 100 g a.i./ha
[6] = herbicide B2.68 (thiencarbazone-methyl) 30 g a.i./ha + safener 100 g a.i./ha
[7] = herbicide B2.81 15 g a.i./ha + safener 100 g a.i./ha
[8] = herbicide B2.85 5 g a.i./ha + safener 100 g a.i./ha
[9] = herbicide B2.92 5 g a.i./ha + safener 100 g a.i./ha
[10] = herbicide B4.28 (topramezone) 300 g a.i./ha + safener 100 g a.i./ha
[11] = herbicide B5.21 (ethofumesate) 2000 g a.i./ha + safener 100 g a.i./ha
[12] = herbicide B6.4 (fluroxypyr) 500 g a.i./ha + safener 100 g a.i./ha
[13] = herbicide B7.5 (glyphosate) 400 g a.i./ha + safener 100 g a.i./ha
[14] = herbicide B8.6 (bifenox) 600 g a.i./ha + safener 100 g a.i./ha
[15] = herbicide B1.2 (bicyclopyrone) 400 g a.i./ha + safener 100 g a.i./ha
[16] = herbicide B1.8 (pinoxaden) 200 g a.i./ha + safener 100 g a.i./ha
[17] = herbicide B2.38 (metazachlor) 4000 g a.i./ha + safener 100 g a.i./ha
[18] = herbicide B5.13 (cinmethylin) 500 g a.i./ha + safener 100 g a.i./ha
[19] = herbicide B5.13 (cinmethylin) 1000 g a.i./ha + safener 100 g a.i./ha
[20] = herbicide B5.14 (clomazone) 200 g a.i./ha + safener 100 g a.i./ha
[21] = herbicide B5.26 (flumioxazin) 20 g a.i./ha + safener 100 g a.i./ha
[22] = herbicide B6.5 (picloram) 400 g a.i./ha + safener 100 g a.i./ha
[23] = herbicide B9.10 (saflufenacil) 20 g a.i./ha + safener 100 g a.i./ha

COC(=O)COc1nc(-c2ccc(Cl)cc2F)n(-c2ccc(F)cc2F)n1 [Compound A3, methyl {[5-(4-chloro-2-fluorophenyl)-1-(2,4-difluorophenyl)-1H-1,2,4-triazol-3-yl]oxy}acetate]
Reduction in the damage by safener (difference) [1, 3]: 15 | Reduction in the damage by safener (in %) [1, 3]: 50% | Reduction in the damage by safener (difference) [1, 4]: 35 | Reduction in the damage by safener (in %) [1, 4]: 70% | Reduction in the damage by safener (difference) [1, 5]: 25 | Reduction in the damage by safener (in %) [1, 5]: 56% | Reduction in the damage by safener (difference) [1, 6]: 30 | Reduction in the damage by safener (in %) [1, 6]: 100% | Reduction in the damage by safener (difference) [1, 7]: 70 | Reduction in the damage by safener (in %) [1, 7]: 100% | Reduction in the damage by safener (difference) [1, 8]: 15 | Reduction in the damage by safener (in %) [1, 8]: 25% | Reduction in the damage by safener (difference) [1, 9]: 30 | Reduction in the damage by safener (in %) [1, 9]: 46% | Reduction in the damage by safener (difference) [1, 10]: 40 | Reduction in the damage by safener (in %) [1, 10]: 80% | Reduction in the damage by safener (difference) [1, 11]: 60 | Reduction in the damage by safener (in %) [1, 11]: 100% | Reduction in the damage by safener (difference) [1, 12]: 20 | Reduction in the damage by safener (in %) [1, 12]: 100% | Reduction in the damage by safener (difference) [1, 13]: 50 | Reduction in the damage by safener (in %) [1, 13]: 83% | Reduction in the damage by safener (difference) [1, 14]: 35 | Reduction in the damage by safener (in %) [1, 14]: 88% | Reduction in the damage by safener (difference) [2, 15]: 25 | Reduction in the damage by safener (in %) [2, 15]: 42% | Reduction in the damage by safener (difference) [2, 16]: 15 | Reduction in the damage by safener (in %) [2, 16]: 43% | Reduction in the damage by safener (difference) [2, 3]: 30 | Reduction in the damage by safener (in %) [2, 3]: 100% | Reduction in the damage by safener (difference) [2, 4]: 40 | Reduction in the damage by safener (in %) [2, 4]: 100% | Reduction in the damage by safener (difference) [2, 17]: 30 | Reduction in the damage by safener (in %) [2, 17]: 75% | Reduction in the damage by safener (difference) [2, 7]: 15 | Reduction in the damage by safener (in %) [2, 7]: 21% | Reduction in the damage by safener (difference) [2, 10]: 20 | Reduction in the damage by safener (in %) [2, 10]: 50% | Reduction in the damage by safener (difference) [2, 18]: 25 | Reduction in the damage by safener (in %) [2, 18]: 100% | Reduction in the damage by safener (difference) [2, 19]: 25 | Reduction in the damage by safener (in %) [2, 19]: 100% | Reduction in the damage by safener (difference) [2, 20]: 15 | Reduction in the damage by safener (in %) [2, 20]: 38% | Reduction in the damage by safener (difference) [2, 11]: 70 | Reduction in the damage by safener (in %) [2, 11]: 100% | Reduction in the damage by safener (difference) [2, 21]: 25 | Reduction in the damage by safener (in %) [2, 21]: 42% | Reduction in the damage by safener (difference) [2, 22]: 20 | Reduction in the damage by safener (in %) [2, 22]: 80% | Reduction in the damage by safener (difference) [2, 13]: 35 | Reduction in the damage by safener (in %) [2, 13]: 78%

COC(=O)COc1nc(-c2ccc(F)cc2F)n(-c2ccc(Cl)cc2F)n1 [Compound A5, methyl {[1-(4-chloro-2-fluorophenyl)-5-(2,4-difluorophenyl)-1H-1,2,4-triazol-3-yl]oxy}acetate]
Reduction in the damage by safener (difference) [1, 6]: 30 | Reduction in the damage by safener (in %) [1, 6]: 100% | Reduction in the damage by safener (difference) [1, 7]: 20 | Reduction in the damage by safener (in %) [1, 7]: 29% | Reduction in the damage by safener (difference) [1, 8]: 40 | Reduction in the damage by safener (in %) [1, 8]: 67% | Reduction in the damage by safener (difference) [1, 9]: 50 | Reduction in the damage by safener (in %) [1, 9]: 77% | Reduction in the damage by safener (difference) [1, 11]: 60 | Reduction in the damage by safener (in %) [1, 11]: 100% | Reduction in the damage by safener (difference) [1, 12]: 15 | Reduction in the damage by safener (in %) [1, 12]: 75% | Reduction in the damage by safener (difference) [1, 23]: 15 | Reduction in the damage by safener (in %) [1, 23]: 38% | Reduction in the damage by safener (difference) [2, 16]: 20 | Reduction in the damage by safener (in %) [2, 16]: 57% | Reduction in the damage by safener (difference) [2, 7]: 20 | Reduction in the damage by safener (in %) [2, 7]: 29% | Reduction in the damage by safener (difference) [2, 8]: 50 | Reduction in the damage by safener (in %) [2, 8]: 83% | Reduction in the damage by safener (difference) [2, 9]: 55 | Reduction in the damage by safener (in %) [2, 9]: 92% | Reduction in the damage by safener (difference) [2, 20]: 15 | Reduction in the damage by safener (in %) [2, 20]: 38% | Reduction in the damage by safener (difference) [2, 11]: 70 | Reduction in the damage by safener (in %) [2, 11]: 100%
